# Reference: patent publication US20250215026A1, “Deuterated Compounds, Compositions and Uses” (BioJive LLC, priority 2018, published 2025)
# Experiments:
# [1] = Incorporation of orally dosed D-DHA into retina by nanoSIMS; type: in vivo, mouse; details: after three days of dosing
# Method: In this example, D-DHA (20 mg; 1 mg/ul) was administered orally as ethyl ester to a wild-type mouse by gavage for three consecutive days in addition to unrestricted regular DHA-free rodent diet. Mouse retina was harvested and then fixed and embedded in resin. Retinal sections were analyzed with nanoscale secondary ion mass spectrometry (nanoSIMS) to determine the incorporation rates of D-DHA into retinal cells by measuring the relative enrichment of DHA-bound deuterium over its natural tissue abundance. The D-DHA/DHA substitution rate of natural DHA in the outer segments was calculated by the ratio of increased deuterium abundance vs. total hydrogen contribution of DHA in outer segments.
# [2] = Liposome leakage of sulforhodamine B by fluorescence correlation spectroscopy, +/- Fe2+/ascorbate
# Method: The equipment set up and peak intensity analysis was conducted as described in Perevoshchikova, et al., Biochim. Biophys. Acta 1778, 2182-2190 (2008). Briefly, fluorescence excitation and detection utilized a Nd: YAG solid state laser with a 532-nm beam attached to an Olympus IMT-2 epifluorescent inverted microscope equipped with a 40×, NA 1.2 water immersion objective (Carl Zeiss, Jena, Germany). The fluorescence light passed through an appropriate dichroic beam splitter and a long-pass filter and was imaged onto a 50-μm core fiber coupled to an avalanche photodiode (SPCM-AQR-13-FC, PerkinElmer Optoelectronics, Vaudreuil, Quebec, Canada). The signal from an output was sent to a PC using a fast interface card (Flex02-01D/C, Correlator.com, Bridgewater, NJ). The data acquisition time was 30 s. The fluorescence was recorded from the confocal volume located at about 50 μm above the coverslip surface with 50 μL of the buffer solution added. Most of the data were collected under the conditions of stirring a suspension by a paddle-shaped 3-mm plastic bar rotated at 600 rpm. To calibrate the setup, the fluorescence autocorrelation function of Rhodamine 6G solution was recorded. Assuming the diffusion coefficient of the dye to be 2.5×10^−6 cm^2/s, the value of the confocal radius is circa ω=0.42 μm. The correlated fluorescence emission signals were fitted to the three-dimensional autocorrelation function as described in Hess, et al., Biochemistry 41; 697-705 (2002).
# SRB-loaded liposomes were suspended in an aqueous solution of Fe^2+ and ascorbate […], prepared from lipid mixtures containing linoleoyl stearoyl phosphatidylcholine (H-Lin-PC) as the bulk lipid (unless otherwise stated) with various contents of a series of 1-stearoyl phosphatidylcholines, including compounds of Formula (II). To measure G(τ→0) more precisely, the FCS experiments were performed under stirring conditions. […] The reduction of the G(τ→0) amplitude apparently reflected an increase in the number of fluorescent particles due to SRB release from liposomes. […]
compound,measurement,setting,value
"[2H]C([2H])(/C=C\CC)/C=C\C([2H])([2H])/C=C\CCCCCCCC(=O)O[C@H](COC(=O)CCCCCCCCCCCCCCCCC)COP(=O)([O-])OCC[N+](C)(C)C [D4-Lnn-PC, 1-stearoyl-2-(11,11,14,14-D4-linolenyl)-sn-glycero-3-phosphatidylcholine]",relative strength of protection of H-Lin-PC bulk: % in bilayer,FIG. 6,17%
"[2H]C([2H])(/C=C\CCCCC)/C=C\C([2H])([2H])/C=C\C([2H])([2H])/C=C\CCCC(=O)O[C@H](COC(=O)CCCCCCCCCCCCCCCCC)COP(=O)([O-])OCC[N+](C)(C)C [D6-Ara-PC, 1-stearoyl-2-(7,7,10,10,13,13-D6-arachidonoyl)-sn-glycero-3-phosphatidylcholine]",relative strength of protection of H-Lin-PC bulk: % in bilayer,FIG. 6,12%
"[2H]C([2H])(/C=C\CC)/C=C\C([2H])([2H])/C=C\C([2H])([2H])/C=C\C([2H])([2H])/C=C\C([2H])([2H])/C=C\CCC(=O)OCC [D-DHA, 6,6,9,9,12,12,15,15,18,18-D10-docosahexaenoic acid ethyl ester]",level reached in retinal tissues after oral dosing,[1],above 1%
"[2H]C([2H])(/C=C\CC)/C=C\C([2H])([2H])/C=C\C([2H])([2H])/C=C\C([2H])([2H])/C=C\CCCC(=O)O[C@@H](COC(=O)CCCCCCCCCCCCCCCCC)COP(=O)([O-])OCC[N+](C)(C)C [D8-EPA-PC, 1-stearoyl-2-(7,7,10,10,13,13,16,16-D8-eicosapentaenoyl)-sn-glycero-3-phosphatidylcholine]",relative strength of protection of H-Lin-PC bulk: % in bilayer,FIG. 6,10%
"[2H]C([2H])(/C=C\CCCCC)/C=C\CCCCCCCC(=O)O[C@H](COC(=O)CCCCCCCCCCCCCCCCC)COP(=O)([O-])OCC[N+](C)(C)C [D2-Lin-PC, 1-stearoyl-2-(11,11-D2-linoleyl)-sn-glycero-3-phosphatidylcholine]",effect of incubation with Fe/ascorbate on G(τ→0) amplitude of SRB,"[2]; 10% D2-Lin-PC in H-Lin-PC, 0, 10, 20 min, FIG. 1A",led to a decrease in the G(τ→0) amplitude
same,effect of incubation with Fe2+/ascorbate on G(τ→0) amplitude of SRB,"[2]; 25% D2-Lin-PC in H-Lin-PC, FIG. 1B",did not reduce the amplitude of G(τ→0) or reduced it to a very low extent
same,difference between extent of liposome leakage α with and without Fe2+/ascorbate,"[2]; 100% of the deuterated lipid, FIG. 2A",very low
same,relative strength of protection of H-Lin-PC bulk: % in bilayer,FIG. 6,25%
same,% of deuterated lipid giving very low level of ΔA234 and very low difference in α +/- Fe2+/ascorbate,"t=10 min, in H-Lin-PC, FIG. 3",≥ 20%
"[2H]C([2H])(/C=C\CC)/C=C\C([2H])([2H])/C=C\C([2H])([2H])/C=C\C([2H])([2H])/C=C\C([2H])([2H])/C=C\CCC(=O)O[C@H](COC(=O)CCCCCCCCCCCCCCCCC)COP(=O)([O-])OCC[N+](C)(C)C [D10-DHA-PC, 1-stearoyl-2-(6,6,9,9,12,12,15,15,18,18-D10-docosahexaenoyl)-sn-glycero-3-phosphatidylcholine]","protection, fold stronger than for D6-Ara","diene conjugates assay, H-Lin-PC matrix",10 fold
same,"level suppressing lipid autooxidation, diene conjugates assay","in the H-Lin-PC matrix, FIG. 6",≤ 1%
same,protection from oxidative stress compared to other deuterated lipids,"undeuterated H-Lin-PC matrix, FIG. 6",substantially enhanced protection from oxidative stress
"[2H]C([2H])(/C=C\CC)/C=C\C/C=C\CCCCCCCC(=O)O[C@H](COC(=O)CCCCCCCCCCCCCCCCC)COP(=O)([O-])OCC[N+](C)(C)C [D2-Lnn-PC, 1-stearoyl-2-(14,14-D2-linolenyl)-sn-glycero-3-phosphatidylcholine]","percentage needed for protection of H-Lin-PC matrix, relative to D4-Lnn-PC",FIG. 6,about twofold as high as that of D4-Lnn-PC
